{"source": "patent US8003096B2", "about": "“Means and methods for the recruitment and identification of stem cells” (Vlaams Interuniversitair Instituut voor Biotechnologie VZW, priority 2003, dated 2011)", "key": {"[1]": {"type": "in vivo, mouse", "protocol": "(§1) To study the role of the plasminogen proteinase system with its plasminogen activators tPA and uPA, and active plasmin in stem/progenitor cell mobilization, mice lacking plasminogen (Plg^−/−), tPA (tPA^−/−), uPA (uPA^−/−) and both activators (tPA^−/−uPA^−/−) were used.^(17, 18) Age- and sex-matched mice were kept in IVC cages. Mobilization was induced either via a single sublethal injection i.v. of the myeloablative agent 5-fluorouracil (5-FU, 200-250 mg/kg), or via administration s.c. of recombinant human G-CSF (Filgrastim, Amgen, 200 μg/kg/d) for five consecutive days.^(12) Peripheral blood (PB) samples were obtained by retro-orbital bleeding under light anesthesia. Full blood counts were determined on the Abbott Cell Dyn 1300 hemocytometer. The number of mobilized hematopoietic progenitor cells (HPCs) in the circulation was determined via methylcellulose-based CFU-C assays (MethoCult, Stem Cell Technologies), per 10^5 peripheral blood mononuclear cells (PB MNCs).^(12) The number of mobilized hematopoietic stem cells (HSCs) in the circulation was quantified via splenic colony-forming assays (CFU-S), and evaluated for long-term engraftment via transplantation into lethally irradiated syngeneic wild-type recipients (9.5 Gy total body irradiation). […]\nWild-type mice and mice lacking Plg, both tPA and uPA, tPA, uPA, uPAR, PAI-1, α2AP, MMP-2 (kind gift from S. Itohara), MMP-3 (kind gift from J. Mudgett), MMP-9, MMP-12 (kind gift from S. Shapiro), and TIMP-1 (obtained by courtesy of P. Soloway) were used, and housed in barrier cages (individually ventilated) (Heymans et al. (1999), Nat. Med. 5:1135-42). […] Peripheral blood was repetitively sampled by retro-orbital puncture under light anesthesia, and full blood counts (EDTA buffered) were determined on a hemocytometer (Abbott Cell Dyn 1300). Peripheral blood smears were stained using Giemsa-May-Grunwald and at least 200 cells were analyzed. […]"}, "plasmin": {"system": "plasmin", "assay": "Plasmin activity in BM plasma, chromogenic assay", "type": "in vivo, mouse", "conditions": "WT mice", "protocol": "as §1"}}, "data": [{"smiles": "O=c1[nH]cc(F)c(=O)[nH]1", "note": "[5-FU, 5-fluorouracil]", "values": [{"measurement": "mice that died", "setting": "[1]; Plg−/− or tPA−/−uPA−/− mice, sublethal dose", "value": "up to 75%"}, {"measurement": "mice that did not survive", "setting": "[1]; WT mice, sublethal dose", "value": 10, "unit": "%"}, {"measurement": "time to recovery from drop in WBC, RBC and platelet counts", "setting": "[1]; mouse, in vivo", "value": "2.5-3 weeks"}, {"measurement": "plasmin activity in BM plasma", "setting": "plasmin; after single i.v. bolus, N=4", "value": "75±14", "unit": "U"}, {"measurement": "elevation of plasmin activity in BM plasma above baseline", "setting": "plasmin; single i.v. bolus", "value": "five-fold"}]}]}
